Legend:
[1] = Canine pharmacokinetic (PK) study, single IV or oral dose; details: dog; for Vd / clearance / half-life / Cmax: in vivo; for F: oral 1 mg/kg
[2] = test system: 4th stage larvae (L4) of Dirofilaria immitis; assay: Dirofilaria immitis, L4 Stage (DiL4) In Vitro Assay; format: cell-based; details: Dirofilaria immitis, 72 h, read-out: DiL4 Minimum Effective Dose (MED), approximately 72 hours incubation; L4 larvae assessed for survival or paralysis
[3] = test system: microfilariae of Dirofilaria immitis; assay: Dirofilaria immitis, Microfilaria (DiMF) In vitro Assay; format: cell-based; details: 72 h, read-out: DiMF Minimum Effective Dose (MED), approximately 72 hours incubation, microfilariae assessed for survival or paralysis
[4] = test system: third stage larvae of Haemonchus contortus; assay: Haemonchus contortus L3 (HcL3) Assay; format: cell-based; details: 96 h, read-out: HcL3 Minimum Effective Dose (MED)

`CC(C)C[C@H]1C(=O)O[C@H](Cc2ccc(Cn3nc(C(F)(F)F)cc3C(F)(F)F)cc2)C(=O)N(C)[C@@H](CC(C)C)C(=O)O[C@H](C)C(=O)N(C)[C@@H](CC(C)C)C(=O)O[C@H](Cc2ccc(Cn3nc(C(F)(F)F)cc3C(F)(F)F)cc2)C(=O)N(C)[C@@H](CC(C)C)C(=O)O[C@H](C)C(=O)N1C` [Example 1b-15, (3S,6R,9S,12R,15S,18R,21S,24R)-6,18-bis[(4-{[3,5-bis(trifluoromethyl)-1H-pyrazol-1-yl]methyl}phenyl)methyl]-4,10,12,16,22,24-hexamethyl-3,9,15,21-tetrakis(2-methylpropyl)-1,7,13,19-tetraoxa-4,10,16,22-tetraazacyclotetracosan-2,5,8,11,14,17,20,23-octaone] showed a Vd ([1]; iv, 0.2 mg/kg) of 0.32 L/kg, a clearance ([1]; iv, 0.2 mg/kg) of 0.05 mL/min/kg and a half-life ([1]; iv, 0.2 mg/kg) of 67 h. It also gave a Cmax ([1]; po, 1 mg/kg) of 5 ng/mL, an F [1] of 0.2% and a minimal effective concentration [2] of no more than 0.0001 µM. For the same compound, the minimal effective concentration [3] was 0.01 to 0.1 µM.
`CC(C)C[C@H]1C(=O)O[C@H](Cc2ccc(Cn3cc(C4CC4)cn3)cc2)C(=O)N(C)[C@@H](CC(C)C)C(=O)O[C@H](C)C(=O)N(C)[C@@H](CC(C)C)C(=O)O[C@H](Cc2ccc(Cn3cc(C4CC4)cn3)cc2)C(=O)N(C)[C@@H](CC(C)C)C(=O)O[C@H](C)C(=O)N1C` [Example 1b-45, (3S,6R,9S,12R,15S,18R,21S,24R)-6,18-bis(4-((4-cyclopropyl-1H-pyrazol-1-yl)methyl)benzyl)-3,9,15,21-tetraisobutyl-4,10,12,16,22,24-hexamethyl-1,7,13,19-tetraoxa-4,10,16,22-tetraazacyclotetracosan-2,5,8,11,14,17,20,23-octaone] gave a Cmax ([1]; po, 1 mg/kg) of 127 ng/mL, a half-life ([1]; po, 1 mg/kg) of 104 h and a minimal effective concentration [3] of 0.01 to 0.1 µM.
`CC(C)C[C@H]1C(=O)O[C@H](Cc2ccc(Cn3ccc(-c4ccccc4)n3)cc2)C(=O)N(C)[C@@H](CC(C)C)C(=O)O[C@H](C)C(=O)N(C)[C@@H](CC(C)C)C(=O)O[C@H](Cc2ccc(Cn3ccc(-c4ccccc4)n3)cc2)C(=O)N(C)[C@@H](CC(C)C)C(=O)O[C@H](C)C(=O)N1C` [Example 1b-68, (3S,6R,9S,12R,15S,18R,21S,24R)-3,9,15,21-tetraisobutyl-4,6,10,16,18,22-hexamethyl-12,24-bis(4-((3-phenyl-1H-pyrazol-1-yl)methyl)benzyl)-1,7,13,19-tetraoxa-4,10,16,22-tetraazacyclotetracosan-2,5,8,11,14,17,20,23-octaone] gave a Vd ([1]; iv, 0.2 mg/kg) of 7.58 L/kg, a clearance ([1]; iv, 0.2 mg/kg) of 1 mL/min/kg and a half-life ([1]; iv, 0.2 mg/kg) of 163 h. It also gave a Cmax ([1]; po, 1 mg/kg) of 39 ng/mL, an F [1] of 4% and a minimal effective concentration [2] of 0.001 to 0.01 µM.
`CC(C)C[C@H]1C(=O)O[C@H](Cc2ccc(Cn3ccc(C(F)(F)F)n3)cc2)C(=O)N(C)[C@@H](CC(C)C)C(=O)O[C@H](C)C(=O)N(C)[C@@H](CC(C)C)C(=O)O[C@H](Cc2ccc(Cn3ccc(C(F)(F)F)n3)cc2)C(=O)N(C)[C@@H](CC(C)C)C(=O)O[C@H](C)C(=O)N1C` [Example 1b-69, (3S,6R,9S,12R,15S,18R,21S,24R)-3,9,15,21-tetraisobutyl-4,6,10,16,18,22-hexamethyl-12,24-bis(4-((3-(trifluoromethyl)-1H-pyrazol-1-yl)methyl)benzyl)-1,7,13,19-tetraoxa-4,10,16,22-tetraazacyclotetracosan-2,5,8,11,14,17,20,23-octaone] showed a Vd ([1]; iv, 0.2 mg/kg) of 3.81 L/kg, a clearance ([1]; iv, 0.2 mg/kg) of 1 mL/min/kg and a half-life ([1]; iv, 0.2 mg/kg) of 256 h. The Cmax ([1]; po, 1 mg/kg) was 27 ng/mL, the F [1] was 5% and the minimal effective concentration [2] was 0.001 to 0.01 µM. The minimal effective concentration [3] was 0.01 to 0.1 µM.
`CC(C)C[C@H]1C(=O)O[C@H](Cc2ccc(Cn3cc(C(F)(F)F)ccc3=O)cc2)C(=O)N(C)[C@@H](CC(C)C)C(=O)O[C@H](C)C(=O)N(C)[C@@H](CC(C)C)C(=O)O[C@H](Cc2ccc(Cn3cc(C(F)(F)F)ccc3=O)cc2)C(=O)N(C)[C@@H](CC(C)C)C(=O)O[C@H](C)C(=O)N1C` [Example 9-22, (3S,6R,9S,12R,15S,18R,21S,24R)-3,9,15,21-tetraisobutyl-4,6,10,16,18,22-hexamethyl-12,24-bis(4-((2-oxo-5-(trifluoromethyl)pyridin-1 (2H)-yl)methyl)benzyl)-1,7,13,19-tetraoxa-4,10,16,22-tetraazacyclotetracosan-2,5,8,11,14,17,20,23-octaone] showed a minimal effective concentration [4] of 1 to 10 µM, a minimal effective concentration [2] of 0.001 to 0.01 µM and a minimal effective concentration [3] of 0.001 to 0.01 µM.
Work on `CC(C)C[C@H]1C(=O)O[C@H](Cc2ccc(CN3CCOc4ccccc43)cc2)C(=O)N(C)[C@@H](CC(C)C)C(=O)O[C@H](C)C(=O)N(C)[C@@H](CC(C)C)C(=O)O[C@H](Cc2ccc(CN3CCOc4ccccc43)cc2)C(=O)N(C)[C@@H](CC(C)C)C(=O)O[C@H](C)C(=O)N1C` [Example 9-26, (3S,6R,9S,12R,15S,18R,21S,24R)-6,18-bis(4-((2,3-dihydro-4H-benzo[b][1,4]oxazin-4-yl)methyl)benzyl)-3,9,15,21-tetraisobutyl-4,10,12,16,22,24-hexamethyl-1,7,13,19-tetraoxa-4,10,16,22-tetraazacyclotetracosan-2,5,8,11,14,17,20,23-octaone] yielded a Vd ([1]; iv, 0.2 mg/kg) of 0.6 L/kg, a clearance ([1]; iv, 0.2 mg/kg) of 0.1 mL/min/kg and a half-life ([1]; iv, 0.2 mg/kg) of 106 h. For the same compound, the Cmax ([1]; po, 1 mg/kg) was 71 ng/mL, the F [1] was 1% and the minimal effective concentration [2] was 0.0001 to 0.001 µM.
In the case of `Cc1ccc(C#N)n1Cc1ccc(C[C@H]2OC(=O)[C@H](CC(C)C)N(C)C(=O)[C@@H](C)OC(=O)[C@H](CC(C)C)N(C)C(=O)[C@@H](Cc3ccc(Cn4c(C)ccc4C#N)cc3)OC(=O)[C@H](CC(C)C)N(C)C(=O)[C@@H](C)OC(=O)[C@H](CC(C)C)N(C)C2=O)cc1` [Example 9-48, 1,1′-(((((2R,5S,8R,11 S,14R,17S,20R,23S)-5,11,17,23-tetraisobutyl-4,8,10,16,20,22-hexamethyl-3,6,9,12,15,18,21,24-octaoxo-1,7,13,19-tetraoxa-4,10,16,22-tetraazacyclotetracosane-2,14-diyl)bis(methylene))bis(4,1-phenylene))bis(methylene))bis(5-methyl-1H-pyrrole-2-carbonitrile)], the minimal effective concentration [4] was no more than 1 µM, the minimal effective concentration [2] was no more than 0.0001 µM and the minimal effective concentration [3] was 0.001 to 0.01 µM.
For `CC(C)C[C@H]1C(=O)O[C@H](Cc2ccc(Cn3ncnc3C(C)(C)C)cc2)C(=O)N(C)[C@@H](CC(C)C)C(=O)O[C@H](C)C(=O)N(C)[C@@H](CC(C)C)C(=O)O[C@H](Cc2ccc(Cn3ncnc3C(C)(C)C)cc2)C(=O)N(C)[C@@H](CC(C)C)C(=O)O[C@H](C)C(=O)N1C` [Example 9-51, (3S,6R,9S,12R,15S,18R,21S,24R)-6,18-bis(4-((5-(tert-butyl)-1H-1,2,4-triazol-1-yl)methyl)benzyl)-3,9,15,21-tetraisobutyl-4,10,12,16,22,24-hexamethyl-1,7,13,19-tetraoxa-4,10,16,22-tetraazacyclotetracosan-2,5,8,11,14,17,20,23-octaone], the minimal effective concentration [4] was 1 to 10 µM, the minimal effective concentration [2] was 0.001 to 0.01 µM and the minimal effective concentration [3] was 0.001 to 0.01 µM.
For `CC(C)C[C@H]1C(=O)O[C@H](Cc2ccc(Cn3ncnc3C3CCCC3)cc2)C(=O)N(C)[C@@H](CC(C)C)C(=O)O[C@H](C)C(=O)N(C)[C@@H](CC(C)C)C(=O)O[C@H](Cc2ccc(Cn3ncnc3C3CCCC3)cc2)C(=O)N(C)[C@@H](CC(C)C)C(=O)O[C@H](C)C(=O)N1C` [Example 9-52, (3S,6R,9S,12R,15S,18R,21S,24R)-6,18-bis(4-((5-cyclopentyl-1H-1,2,4-triazol-1-yl)methyl)benzyl)-3,9,15,21-tetraisobutyl-4,10,12,16,22,24-hexamethyl-1,7,13,19-tetraoxa-4,10,16,22-tetraazacyclotetracosan-2,5,8,11,14,17,20,23-octaone], the minimal effective concentration [4] was 1 to 10 µM, the minimal effective concentration [2] was 0.001 to 0.01 µM and the minimal effective concentration [3] was 0.001 to 0.01 µM.
Work on `CC(C)Cc1ncnn1Cc1ccc(C[C@H]2OC(=O)[C@H](CC(C)C)N(C)C(=O)[C@@H](C)OC(=O)[C@H](CC(C)C)N(C)C(=O)[C@@H](Cc3ccc(Cn4ncnc4CC(C)C)cc3)OC(=O)[C@H](CC(C)C)N(C)C(=O)[C@@H](C)OC(=O)[C@H](CC(C)C)N(C)C2=O)cc1` [Example 9-53, (3S,6R,9S,12R,15S,18R,21S,24R)-3,9,15,21-tetraisobutyl-6,18-bis(4-((5-isobutyl-1H-1,2,4-triazol-1-yl)methyl)benzyl)-4,10,12,16,22,24-hexamethyl-1,7,13,19-tetraoxa-4,10,16,22-tetraazacyclotetracosan-2,5,8,11,14,17,20,23-octaone] yielded a minimal effective concentration [4] of 1 to 10 µM, a minimal effective concentration [2] of 0.001 to 0.01 µM and a minimal effective concentration [3] of 0.001 to 0.01 µM.
In the case of `CC(C)C[C@H]1C(=O)O[C@H](Cc2ccc(Cn3ncnc3CC(C)(C)C)cc2)C(=O)N(C)[C@@H](CC(C)C)C(=O)O[C@H](C)C(=O)N(C)[C@@H](CC(C)C)C(=O)O[C@H](Cc2ccc(Cn3ncnc3CC(C)(C)C)cc2)C(=O)N(C)[C@@H](CC(C)C)C(=O)O[C@H](C)C(=O)N1C` [Example 9-56, (3S,6R,9S,12R,15S,18R,21S,24R)-3,9,15,21-tetraisobutyl-4,6,10,16,18,22-hexamethyl-12,24-bis(4-((5-neopentyl-1H-1,2,4-triazol-1-yl)methyl)benzyl)-1,7,13,19-tetraoxa-4,10,16,22-tetraazacyclotetracosan-2,5,8,11,14,17,20,23-octaone], the minimal effective concentration [4] was 1 to 10 µM, the minimal effective concentration [2] was 0.001 to 0.01 µM and the minimal effective concentration [3] was 0.001 to 0.01 µM.
`Cc1ccc(C#N)n1Cc1ccc(C[C@H]2OC(=O)[C@H](CC(C)C)N(C)C(=O)[C@@H](C)OC(=O)[C@H](CC(C)C)N(C)C(=O)[C@@H](Cc3ccccc3)OC(=O)[C@H](CC(C)C)N(C)C(=O)[C@@H](C)OC(=O)[C@H](CC(C)C)N(C)C2=O)cc1` [Example 10-30, 1-(4-(((2R,5S,8R,11S,14R,17S,20R,23S)-14-benzyl-5,11,17,23-tetraisobutyl-4,8,10,16,20,22-hexamethyl-3,6,9,12,15,18,21,24-octaoxo-1,7,13,19-tetraoxa-4,10,16,22-tetraazacyclotetracosan-2-yl)methyl)benzyl)-5-methyl-1H-pyrrole-2-carbonitrile] showed a minimal effective concentration [4] of 1 to 10 µM, a minimal effective concentration [2] of 0.0001 to 0.001 µM and a minimal effective concentration [3] of 0.001 to 0.01 µM.

From patent publication US11331369B2, “Endoparasitic depsipeptides” (Zoetis Services LLC, priority 2017, dated 2022)
